pIC50: −log10 of the molar value. Counter-ions that a name gives are not always drawn. *1 amine or outer side, *2 acyl side, *3 side chain or, on linkers, in order; H or OH if unused. Where a SMILES comes first, the peptide text is derived from it. [ ]: non-standard residue; d: D form. The star is where a group is joined. Ahppa(3S,4S) = O=C(C[C@H](O)[C@H](Cc1ccccc1)N[*:1])[*:2]; dNMeF = CN[C@H](Cc1ccccc1)C(=O)O; NMeQ = CN[C@@H](CCC(N)=O)C(=O)O; Cbz = O=C(OCc1ccccc1)*
Key:
[1] = biological target: Cathepsin D (Homo sapiens, UniProt P07339); assay: Inhibition of recombinant human liver Cathepsin D using Mca-Gly-Lys-Pro-Ile-Leu-Phe-Phe-Arg-Leu-Lys-(Dnp)-D-Arg-NH2 as substrate incubated for 120 mins by fluorescence assay
Cathepsin D, sequence (P07339 65-162 limits assumed): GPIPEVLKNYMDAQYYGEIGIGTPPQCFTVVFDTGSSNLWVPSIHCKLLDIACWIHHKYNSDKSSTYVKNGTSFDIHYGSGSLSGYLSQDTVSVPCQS
Cathepsin D, sequence (P07339 169-412 limits assumed): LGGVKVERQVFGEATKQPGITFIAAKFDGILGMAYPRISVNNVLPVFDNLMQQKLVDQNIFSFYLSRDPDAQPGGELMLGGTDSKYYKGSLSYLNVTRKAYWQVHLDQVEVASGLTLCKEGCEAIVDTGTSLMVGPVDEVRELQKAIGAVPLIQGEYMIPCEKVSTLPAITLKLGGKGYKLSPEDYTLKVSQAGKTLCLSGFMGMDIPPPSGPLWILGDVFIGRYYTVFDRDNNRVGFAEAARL

[2] = biological target: T1, Cathepsin E (Homo sapiens, UniProt P14091); assay: Inhibition of Cathepsin E (unknown origin) using Mca-Gly-Lys-Pro-Ile-Leu-Phe-Phe-Arg-Leu-Lys-(Dnp)-D-Arg-NH2 as substrate incubated for 120 mins by fluorescence assay
T1 sequence (P14091 whole entry): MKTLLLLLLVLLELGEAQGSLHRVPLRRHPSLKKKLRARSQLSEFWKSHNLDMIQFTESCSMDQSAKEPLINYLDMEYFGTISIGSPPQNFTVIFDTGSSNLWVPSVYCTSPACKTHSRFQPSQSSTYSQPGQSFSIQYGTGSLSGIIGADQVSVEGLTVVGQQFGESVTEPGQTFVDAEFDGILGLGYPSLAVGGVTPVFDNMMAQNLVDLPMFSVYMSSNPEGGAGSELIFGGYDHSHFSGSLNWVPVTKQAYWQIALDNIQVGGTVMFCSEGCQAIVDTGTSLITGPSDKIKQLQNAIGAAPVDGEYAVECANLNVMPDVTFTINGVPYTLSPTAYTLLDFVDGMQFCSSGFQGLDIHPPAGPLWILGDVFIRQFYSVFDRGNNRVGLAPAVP

[3] = Drug uptake in human MDA-MB-231 cells assessed as increase in internalization at 10 uM after 3 to 24 hrs by LTG/Hoechst 33258 staining based confocal laser scanning microscopy; type: ADME, cell-based; conditions: mda-mb-231, 10 µM, time 3-24 hrs
[4] = Drug uptake in human MDA-MB-231 cells assessed as increase in co-localization with lysosomal at 10 uM after 16 hrs by LTG/Hoechst 33258 staining based confocal laser scanning microscopy; type: ADME, cell-based; conditions: mda-mb-231, 16 h
[5] = biological target: Beta-secretase 1 (Homo sapiens, UniProt P56817); assay: Inhibition of BACE1 (unknown origin) using Mca-Ser-Glu-Val-Asn-Leu-Asp-Ala-Glu-Phe-Arg-Lys(Dnp)-Arg-Arg-NH2 as substrate incubated for 120 mins by fluorescence assay
Beta-secretase 1, sequence (P56817 whole entry): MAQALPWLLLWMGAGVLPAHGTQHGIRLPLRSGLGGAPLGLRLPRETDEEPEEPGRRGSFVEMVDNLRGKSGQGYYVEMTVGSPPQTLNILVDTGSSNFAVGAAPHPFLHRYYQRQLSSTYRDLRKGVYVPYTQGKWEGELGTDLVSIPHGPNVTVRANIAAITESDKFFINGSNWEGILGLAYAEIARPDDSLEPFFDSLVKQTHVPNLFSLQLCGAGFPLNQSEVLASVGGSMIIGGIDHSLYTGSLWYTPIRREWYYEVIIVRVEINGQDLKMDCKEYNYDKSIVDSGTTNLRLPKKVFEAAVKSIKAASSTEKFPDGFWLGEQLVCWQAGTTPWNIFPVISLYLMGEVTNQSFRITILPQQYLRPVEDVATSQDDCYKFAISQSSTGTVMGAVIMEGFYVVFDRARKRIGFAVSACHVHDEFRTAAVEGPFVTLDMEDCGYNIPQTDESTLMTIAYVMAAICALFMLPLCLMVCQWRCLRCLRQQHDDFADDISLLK

[6] = system: A549; assay: Antiproliferative activity against human A549 cells assessed as reduction in cell viability after 72 hrs by CCK-8 assay; type: functional, cell-based; conditions: A549, 72 h
[7] = system: HepG2; assay: Antiproliferative activity against human HepG2 cells assessed as reduction in cell viability after 72 hrs by CCK-8 assay; type: functional, cell-based; conditions: HepG2, 72 h
[8] = system: MDA-MB-231; assay: Antiproliferative activity against human MDA-MB-231 cells assessed as reduction in cell viability after 72 hrs by CCK-8 assay; type: functional, cell-based; conditions: MDA-MB-231, 72 h
[9] = system: MDA-MB-231; assay: Antiproliferative activity against human MDA-MB-231 cells assessed as reduction in cell viability at 10 uM after 72 hrs by CCK-8 assay relative to control; type: functional
[10] = Drug uptake in human MDA-MB-231 cells assessed as increase in internalization at 10 uM after 16 to 24 hrs by LTG/Hoechst 33258 staining based confocal laser scanning microscopy; type: ADME, cell-based; conditions: mda-mb-231, 10 µM, time 16-24 hrs

CC(C)C[C@H](NC(=O)C[C@H](O)[C@H](Cc1ccccc1)NC(=O)[C@H](CCC(N)=O)N(C)C(=O)[C@@H](NC(=O)OCc1ccccc1)C(C)C)C(=O)N[C@@H](C)C(=O)N(C)[C@H](Cc1ccccc1)C(=O)N1CCC[C@H]1C(=O)O
pIC50 [1]: 8.31
pIC50 [2]: 6.92

C#CCNC(=O)[C@H](CCCCNC(=O)[C@H](CCCCN)NC(=O)[C@H](CCCCN)NC(=O)[C@H](CCC(N)=O)NC(=O)[C@H](CO)NC(=O)CCN1c2ccccc2C(C)(C)[C@]12CCc1cc([N+](=O)[O-])ccc1O2)NC(=O)[C@H](CCCCN)NC(=O)[C@H](CCCCN)NC(=O)C(CCC(N)=O)NC(=O)[C@H](CO)NC(=O)CCN1c2ccccc2C(C)(C)[C@]12CCc1cc([N+](=O)[O-])ccc1O2 (some centres not stated)
Drug uptake [3]: Active
Drug uptake [4]: Active

CC(C)C[C@H](NC(=O)C[C@H](O)[C@H](Cc1ccccc1)NC(=O)[C@H](CCC(N)=O)N(C)C(=O)[C@@H](NC(=O)OCc1ccccc1)C(C)C)C(=O)N[C@@H](C)C(=O)N(C)[C@H](Cc1ccccc1)C(=O)N1CCC[C@H]1C(=O)NCCOCCOCCn1cc(CNC(=O)[C@H](CCCCNC(=O)[C@H](CCCCN)NC(=O)[C@H](CCCCN)NC(=O)[C@H](CCC(N)=O)NC(=O)[C@H](CO)NC(=O)CCN2c3ccccc3C(C)(C)[C@]23C=Cc2cc([N+](=O)[O-])ccc2O3)NC(=O)[C@H](CCCCN)NC(=O)[C@H](CCCCN)NC(=O)C(CCC(N)=O)NC(=O)[C@H](CO)NC(=O)CCN2c3ccccc3C(C)(C)[C@]23CCc2cc([N+](=O)[O-])ccc2O3)nn1 (some centres not stated)
pIC50 [1]: 7.39
pIC50 [2]: 7.00
pIC50 [5]: 5.99
pIC50 [6]: < 5.00
pIC50 [7]: < 5.00
pIC50 [8]: < 5.00
inhibition at 10 µM [9]: 49%
Drug uptake [10]: Active

CC(C)C[C@H](NC(=O)C[C@H](O)[C@H](Cc1ccccc1)NC(=O)[C@H](CCC(N)=O)N(C)C(=O)[C@@H](NC(=O)OCc1ccccc1)C(C)C)C(=O)N[C@@H](C)C(=O)N(C)[C@H](Cc1ccc(O)cc1)C(=O)N1CCC[C@H]1C(=O)NCCOCCOCCn1cc(CNC(=O)[C@H](CCCCNC(=O)[C@H](CCCCN)NC(=O)[C@H](CCCCN)NC(=O)[C@H](CCC(N)=O)NC(=O)[C@H](CO)NC(=O)CCN2c3ccccc3C(C)(C)[C@]23C=Cc2cc([N+](=O)[O-])ccc2O3)NC(=O)[C@H](CCCCN)NC(=O)[C@H](CCCCN)NC(=O)C(CCC(N)=O)NC(=O)[C@H](CO)NC(=O)CCN2c3ccccc3C(C)(C)[C@]23CCc2cc([N+](=O)[O-])ccc2O3)nn1 (some centres not stated)
pIC50 [1]: 7.66
pIC50 [2]: 7.92
pIC50 [5]: 6.08
pIC50 [6]: < 5.00
pIC50 [7]: < 5.00
pIC50 [8]: 5.04
inhibition at 10 µM [9]: 52%
Drug uptake [10]: Active

COC(=O)[C@@H]1CCCN1C(=O)[C@@H](Cc1ccc(OC(C)(C)C)cc1)N(C)C(=O)[C@H](C)NC(=O)[C@H](CC(C)C)NC(=O)C[C@H](O)[C@H](Cc1ccccc1)NC(=O)[C@H](CCC(N)=O)N(C)C(=O)[C@@H](NC(=O)OCc1ccccc1)C(C)C
pIC50 [1]: 7.74
pIC50 [2]: 6.98

CC(C)C[C@H](NC(=O)C[C@H](O)[C@H](Cc1ccccc1)NC(=O)[C@H](CCC(N)=O)N(C)C(=O)[C@@H](NC(=O)OCc1ccccc1)C(C)C)C(=O)N[C@@H](C)C(=O)N(C)[C@H](Cc1ccc(OC(C)(C)C)cc1)C(=O)N1CCC[C@H]1C(=O)O
pIC50 [1]: 7.72
pIC50 [2]: 6.73

COC(=O)[C@@H]1CCCN1C(=O)[C@@H](Cc1ccc(O)cc1)N(C)C(=O)[C@H](C)NC(=O)[C@H](CC(C)C)NC(=O)C[C@H](O)[C@H](Cc1ccccc1)NC(=O)[C@H](CCC(N)=O)N(C)C(=O)[C@@H](NC(=O)OCc1ccccc1)C(C)C
pIC50 [1]: 9.75
pIC50 [2]: 6.98
pIC50 [6]: < 5.00
pIC50 [7]: < 5.00
pIC50 [8]: < 5.00
inhibition at 10 µM [9]: 12%

COC(=O)[C@@H]1CCCN1C(=O)[C@@H](Cc1ccccc1)N(C)C(=O)[C@H](C)NC(=O)[C@H](CC(C)C)NC(=O)C[C@H](O)[C@H](Cc1ccccc1)NC(=O)[C@H](CCC(N)=O)N(C)C(=O)[C@@H](NC(=O)OCc1ccccc1)C(C)C (Cbz-V[NMeQ][Ahppa(3S,4S)]LA[dNMeF]P-OMe)
pIC50 [6]: < 5.00
pIC50 [7]: < 5.00
pIC50 [8]: < 5.00
inhibition at 10 µM [9]: 14%

COc1cccc2c1C(=O)c1c(O)c3c(c(O)c1C2=O)C[C@@](O)(C(=O)CO)C[C@@H]3O[C@H]1C[C@H](N)[C@H](O)[C@H](C)O1 [DOXORUBICIN HYDROCHLORIDE]
pIC50 [6]: 6.40
pIC50 [8]: 6.43
inhibition at 10 µM [9]: 70%

— ChEMBL document CHEMBL5154724, “Cathepsin D inhibitors based on tasiamide B derivatives with cell membrane permeability” (Bioorg Med Chem, 2022)
